# From patent US10604512B2, “3-(1H-indol-2-yl)-1H-indazoles and therapeutic uses thereof” (Samumed, LLC, priority 2015, dated 2020)
# Columns and labels:
# [1] = system: Primary human fibroblasts derived from IPF patients (LL29 cells) treated with TGF-β1; assay: Inhibition of the fibrotic process: αSMA staining in TGF-β1-treated primary human fibroblasts from IPF patients (LL29 cells); format: cell-based; conditions: Fibroblast, 96 h; for EC50: % αSMA-positive LL29 cells, TGF-β1 20 ng/mL, 4 days; for inhibition at 10 µM: given where EC50 >10 μM, αSMA, LL29 cells, TGF-β1, 4 days, read-out: percent inhibition at 10 μM
# Procedure, shortened: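 LL29 IPF-patient fibroblasts in 1% FBS stimulated with TGF-β1 (20 ng/mL) and compound (10 μM–1.87 nM, 0.1% DMSO) for 4 days at 37 °C. SYTOX-positive cells excluded; % αSMA-positive cells imaged, normalized to TGF-β1/DMSO wells; EC50 by nonlinear regression, else % inhibition at 10 μM.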
# SW480 colon cancer cells = assay: Cell viability assay (CellTiter-Blue) in SW480 colon cancer cells; format: cell-based; conditions: Homo sapiens, 96 h, four days; for EC50: CellTiter-Blue; for inhibition at 10 µM: given where EC50 >10 μM, read-out: percent inhibition at 10 μM
# Procedure, shortened: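 SW480 colon cancer cells (~2×10^3/well) exposed to 8-point 1:3 dilutions from 10 μM to 0.0045 μM for four days at 37 °C/5% CO2. Viability read by resazurin (CellTiter-Blue) fluorescence after ~3 h, Ex 560/Em 590 nm. EC50 from non-linear regression; percent inhibition at 10 μM given when EC50 >10 μM.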
SMILES,EC50 (SW480 colon cancer cells) [µM],EC50 [1] [µM],inhibition at 10 µM [1] [%],inhibition at 10 µM (SW480 colon cancer cells) [%]
"CS(=O)(=O)NCc1cc(F)cc(-c2cccc3[nH]c(-c4n[nH]c5ccc(-c6ccncc6)cc45)cc23)c1 [Compound 494, N-(3-Fluoro-5-(2-(5-(pyridin-4-yl)-1H-indazol-3-yl)-1H-indol-4-yl)benzyl) methane sulfonamide]",> 10,> 10,10.4,22.3
"CS(=O)(=O)NCc1cc(F)cc(-c2cccc3[nH]c(-c4n[nH]c5ccc(-c6cncnc6)cc45)cc23)c1 [Compound 503, N-(3-Fluoro-5-(2-(5-(pyrimidin-5-yl)-1H-indazol-3-yl)-1H-indol-4-yl)benzyl) methanesulfonamide]",3.17,0.311,,
"Fc1cccc(-c2cccc3[nH]c(-c4n[nH]c5ccc(C6CCNCC6)cc45)cc23)c1 [Compound 533, 3-(4-(3-Fluorophenyl)-1H-indol-2-yl)-5-(piperidin-4-yl)-1H-indazole]",3.84,> 10,0,
"Fc1ccc(-c2cccc3[nH]c(-c4n[nH]c5ccc(C6=CCNCC6)cc45)cc23)cc1 [Compound 550, 3-(4-(4-Fluorophenyl)-1H-indol-2-yl)-5-(1,2,3,6-tetrahydropyridin-4-yl)-1H-indazole]",3.9,> 10,41.7,
"Cc1ncc(-c2ccc3[nH]nc(-c4cc5c(-c6ccncc6)cccc5[nH]4)c3c2)n1C [Compound 601, 5-(1,2-Dimethyl-1H-imidazol-5-yl)-3-(4-(pyridin-4-yl)-1H-indol-2-yl)-1H-indazole]",5.96,4.19,,
"c1cc(N2CCCCC2)c2cc(-c3n[nH]c4ccc(-c5cncc(OC6CCCCC6)c5)cc34)[nH]c2c1 [Compound 635, 5-(5-(Cyclohexyloxy)pyridin-3-yl)-3-(4-(piperidin-1-yl)-1H-indol-2-yl)-1H-indazole]",> 10,2.41,,45.7
"CN1CCN(c2cccc3[nH]c(-c4n[nH]c5ccc(-c6cncc(NC(=O)CC7CCNCC7)c6)cc45)cc23)CC1 [Compound 669, N-(5-(3-(4-(4-Methylpiperazin-1-yl)-1H-indol-2-yl)-1H-indazol-5-yl)pyridin-3-yl)-2-(piperidin-4-yl)acetamide]",> 10,> 10,17.7,12.2
"c1cc(-c2ccoc2)c2cc(-c3n[nH]c4ccc(-c5cncc(OC6CCNCC6)c5)cc34)[nH]c2c1 [Compound 716, 3-(4-(Furan-3-yl)-1H-indol-2-yl)-5-(5-(piperidin-4-yloxy)pyridin-3-yl)-1H-indazole]",2.18,9.99,,

# More lines, main results first:
EC50 (SW480 colon cancer cells) [µM],SMILES,EC50 [1] [µM],inhibition at 10 µM [1] [%],inhibition at 10 µM (SW480 colon cancer cells) [%]
8.93,"c1csc(-c2cccc3[nH]c(-c4n[nH]c5ccc(-c6ccncc6)cc45)cc23)c1 [Compound 354, 5-(pyridin-4-yl)-3-(4-(thiophen-2-yl)-1H-indol-2-yl)-1H-indazole]",> 10,0,
> 10,"CC(C)(C)C(=O)Nc1cncc(-c2ccc3[nH]nc(-c4cc5c(-c6cc(F)cc(CNS(C)(=O)=O)c6)cccc5[nH]4)c3c2)c1 [Compound 484, N-(5-(3-(4-(3-Fluoro-5-(methylsulfonamidomethyl)phenyl)-1H-indol-2-yl)-1H-indazol-5-yl)pyridin-3-yl)pivalamide]",> 10,25.5,37.5
0.486,"CC(C)CC(=O)Nc1cncc(-c2ccc3[nH]nc(-c4cc5ncccc5[nH]4)c3c2)c1 [Compound 506, N-(5-(3-(1H-Pyrrolo[3,2-b]pyridin-2-yl)-1H-indazol-5-yl)pyridin-3-yl)-3-methylbutanamide]",> 10,24.2,
1.09,"O=C(Nc1cncc(-c2ccc3[nH]nc(-c4cc5ncccc5[nH]4)c3c2)c1)c1ccccc1 [Compound 515, N-(5-(3-(1H-Pyrrolo[3,2-b]pyridin-2-yl)-1H-indazol-5-yl)pyridin-3-yl) benzamide]",> 10,0,
0.106,"c1cnc2cc(-c3n[nH]c4ccc(-c5cncc(CN6CCCCC6)c5)cc34)[nH]c2c1 [Compound 519, 5-(5-(Piperidin-1-ylmethyl)pyridin-3-yl)-3-(1H-pyrrolo[3,2-b]pyridin-2-yl)-1H-indazole]",> 10,25.4,
0.547,"O=C(Nc1cncc(-c2ccc3[nH]nc(-c4cc5ncccc5[nH]4)c3c2)c1)C1CCC1 [Compound 525, N-(5-(3-(1H-Pyrrolo[3,2-b]pyridin-2-yl)-1H-indazol-5-yl)pyridin-3-yl) cyclobutanecarboxamide]",> 10,29.4,
0.574,"c1ccc2[nH]c(-c3n[nH]c4ccc(-c5cncc(OCCN6CCCC6)c5)cc34)cc2c1 [Compound 686, 3-(1H-Indol-2-yl)-5-(5-(2-(pyrrolidin-1-yl)ethoxy)pyridin-3-yl)-1H-indazole]",7.39,,
